In ChEMBL document CHEMBL5360532, “Current scenario of quinolone hybrids with potential antibacterial activity against ESKAPE pathogens” (Eur J Med Chem, 2023):
Converted amounts (≈) assume the structure as drawn.

Experiments:
[1] = tested on: Escherichia coli; assay: Antibacterial activity against Escherichia coli UTI 189 assessed as bacterial growth inhibition measured after 20 hrs by microdilution assay; assay type: functional
[2] = tested on: Escherichia coli; assay: Antibacterial activity against Escherichia coli CFT 073 assessed as bacterial growth inhibition measured after 20 hrs by microdilution assay; assay type: functional
[3] = tested on: Staphylococcus aureus; assay: Antibacterial activity against Staphylococcus aureus ATCC 25923 assessed as bacterial growth inhibition measured after 16 hrs by broth microdilution assay; assay type: functional
[4] = tested on: Staphylococcus aureus; assay: Potency index, ratio of ciprofloxacin MIC to test compound MIC for antimicrobial activity against Staphylococcus aureus ATCC 25923 assessed as bacterial growth inhibition measured after 24 hrs by agar dilution assay; assay type: functional
[5] = tested on: Staphylococcus aureus; assay: Antibacterial activity against Staphylococcus aureus ATCC 29213 assessed as bacterial growth inhibition by broth microdilution assay; assay type: functional
[6] = tested on: Escherichia coli; assay: Antibacterial activity against Escherichia coli ATCC 25922 assessed as bacterial growth inhibition by broth microdilution assay; assay type: functional
[7] = tested on: Staphylococcus aureus; assay: Antibacterial activity against Staphylococcus aureus ATCC 25923 assessed as bacterial growth inhibition measured after 24 hrs by agar dilution assay; assay type: functional
[8] = tested on: Escherichia coli; assay: Antibacterial activity against Escherichia coli ATCC 25922 assessed as bacterial growth inhibition measured after 24 hrs by agar dilution assay; assay type: functional
[9] = tested on: Pseudomonas aeruginosa; assay: Antibacterial activity against imipenem resistant Pseudomonas aeruginosa VIM-2 assessed as bacterial growth inhibition measured after 24 hrs by agar dilution assay; assay type: functional
[10] = tested on: Enterobacter cloacae; assay: Antibacterial activity against fosfomycin resistant Enterobacter cloacae assessed as bacterial growth inhibition measured after 24 hrs by agar dilution assay; assay type: functional
[11] = tested on: Escherichia coli; assay: Antibacterial activity against Escherichia coli assessed as bacterial growth inhibition by agar cup diffusion assay; assay type: functional
[12] = tested on: Pseudomonas aeruginosa; assay: Antibacterial activity against Pseudomonas aeruginosa assessed as bacterial growth inhibition by agar cup diffusion assay; assay type: functional
[13] = tested on: Klebsiella pneumoniae; assay: Antibacterial activity against Klebsiella pneumoniae assessed as bacterial growth inhibition by agar cup diffusion assay; assay type: functional
[14] = tested on: Staphylococcus aureus; assay: Antibacterial activity against Staphylococcus aureus assessed as bacterial growth inhibition by agar cup diffusion assay; assay type: functional
[15] = tested on: Staphylococcus aureus; assay: Antibacterial activity against methicillin resistant Staphylococcus aureus assessed as bacterial growth inhibition by agar cup diffusion assay; assay type: functional
[16] = tested on: Escherichia coli; assay: Antibacterial activity against Escherichia coli assessed as bacterial growth inhibition by broth microdilution assay; assay type: functional
[17] = tested on: Escherichia coli; assay: Antibacterial activity against Escherichia coli ATCC35218 assessed as bacterial growth inhibition measured after 18 to 24 hrs inhibition by broth microdilution assay; assay type: functional; settings: time 18-24 hrs
[18] = tested on: Pseudomonas aeruginosa; assay: Antibacterial activity against Pseudomonas aeruginosa ATCC43288 assessed as bacterial growth inhibition measured after 18 to 24 hrs inhibition by broth microdilution assay; assay type: functional; settings: time 18-24 hrs
[19] = tested on: Pseudomonas aeruginosa; assay: Antibacterial activity against Pseudomonas aeruginosa […] assessed as bacterial growth inhibition measured after 18 to 24 hrs inhibition by broth microdilution assay; assay type: functional; settings: time 18-24 hrs
[20] = tested on: Staphylococcus aureus; assay: Antibacterial activity against Staphylococcus aureus assessed as zone of inhibition at 50 mg/ml by agar well diffusion assay; assay type: functional; settings: read-out: IZ
[21] = tested on: Escherichia coli; assay: Antibacterial activity against Escherichia coli assessed as zone of inhibition at 50 mg/ml by agar well diffusion assay; assay type: functional; settings: read-out: IZ
[22] = tested on: Enterococcus faecalis; assay: Antibacterial activity against Enterococcus faecalis assessed as zone of inhibition at 50 mg/ml by agar well diffusion assay; assay type: functional; settings: read-out: IZ
[23] = tested on: Streptococcus pneumoniae; assay: Antibacterial activity against Streptococcus pneumoniae assessed as zone of inhibition at 50 mg/ml by agar well diffusion assay; assay type: functional; settings: read-out: IZ
[24] = tested on: Mycobacterium tuberculosis; assay: Antimycobacterial activity against Mycobacterium tuberculosis H37Rv assessed as bacterial growth inhibition; assay type: functional
[25] = tested on: Staphylococcus aureus; assay: Antibacterial activity against Staphylococcus aureus assessed as zone of inhibition at 50 mg/ml cup plate assay; assay type: functional; settings: read-out: IZ
[26] = tested on: Escherichia coli; assay: Antibacterial activity against Escherichia coli assessed as zone of inhibition at 50 mg/ml cup plate assay; assay type: functional; settings: read-out: IZ
[27] = tested on: Mycobacterium tuberculosis; assay: Antimycobacterial activity against Mycobacterium tuberculosis H37Rv assessed as bacterial growth inhibition by LJ slant assay; assay type: functional
[28] = tested on: Mycobacterium tuberculosis; assay: Antimycobacterial activity against multidrug Mycobacterium tuberculosis assessed as bacterial growth inhibition by LJ slant assay; assay type: functional
[29] = tested on: Mycobacterium tuberculosis; assay: Antimycobacterial activity against extensive drug Mycobacterium tuberculosis assessed as bacterial growth inhibition by LJ slant assay; assay type: functional
[30] = tested on: Escherichia coli; assay: Antibacterial activity against Escherichia coli assessed as bacterial growth inhibition by agar well diffusion assay; assay type: functional, organism-based
[31] = tested on: Pseudomonas aeruginosa; assay: Antibacterial activity against Pseudomonas aeruginosa assessed as bacterial growth inhibition by agar well diffusion assay; assay type: functional, organism-based
[32] = tested on: Staphylococcus aureus; assay: Antibacterial activity against Staphylococcus aureus assessed as bacterial growth inhibition by agar well diffusion assay; assay type: functional, organism-based
[33] = tested on: Escherichia coli; assay: Antibacterial activity against Escherichia coli ATCC 25922 assessed as zone of inhibition at 50 mg/ml by agar diffusion assay; assay type: functional; settings: read-out: IZ
[34] = tested on: Klebsiella pneumoniae; assay: Antibacterial activity against Klebsiella pneumoniae assessed as zone of inhibition at 250 ug/ml by agar well diffusion assay; assay type: functional; settings: read-out: IZ
[35] = tested on: Pseudomonas aeruginosa; assay: Antibacterial activity against Pseudomonas aeruginosa assessed as zone of inhibition at 250 ug/ml by agar well diffusion assay; assay type: functional; settings: read-out: IZ
[36] = tested on: Staphylococcus aureus; assay: Antibacterial activity against Staphylococcus aureus assessed as zone of inhibition at 250 ug/ml by agar well diffusion assay; assay type: functional; settings: read-out: IZ
[37] = tested on: Escherichia coli; assay: Antibacterial activity against Escherichia coli assessed as bacterial growth inhibition measured after 20 hrs by serial dilution method; assay type: functional
[38] = tested on: Klebsiella pneumoniae; assay: Antibacterial activity against Klebsiella pneumoniae assessed as bacterial growth inhibition measured after 20 hrs by serial dilution method; assay type: functional
[39] = tested on: Pseudomonas aeruginosa; assay: Antibacterial activity against Pseudomonas aeruginosa assessed as bacterial growth inhibition measured after 20 hrs by serial dilution method; assay type: functional
[40] = tested on: Staphylococcus aureus; assay: Antibacterial activity against Staphylococcus aureus assessed as bacterial growth inhibition measured after 20 hrs by serial dilution method; assay type: functional
[41] = tested on: Staphylococcus aureus; assay: Antibacterial activity against Staphylococcus aureus MTCC 737 assessed as bacterial growth inhibition measured after 24 hrs by microdilution assay; assay type: functional
[42] = tested on: Staphylococcus aureus; assay: Antibacterial activity against Staphylococcus aureus MLS16 MTCC 2940 assessed as bacterial growth inhibition measured after 24 hrs by microdilution assay; assay type: functional
[43] = tested on: Escherichia coli; assay: Antibacterial activity against Escherichia coli MTCC 1687 assessed as bacterial growth inhibition measured after 24 hrs by microdilution assay; assay type: functional
[44] = tested on: Staphylococcus aureus; assay: Antibacterial activity against methicillin resistant Staphylococcus aureus ATCC 12493 assessed as bacterial growth inhibition by broth microdilution assay; assay type: functional
[45] = tested on: Acinetobacter baumannii; assay: Antibacterial activity against Acinetobacter baumannii assessed as bacterial growth inhibition by serial dilution method; assay type: functional
[46] = tested on: Escherichia coli; assay: Antibacterial activity against Escherichia coli assessed as bacterial growth inhibition by serial dilution method; assay type: functional
[47] = tested on: Staphylococcus aureus; assay: Antibacterial activity against Staphylococcus aureus assessed as bacterial growth inhibition measured after 24 hrs by agar cup diffusion assay; assay type: functional
[48] = tested on: Klebsiella pneumoniae; assay: Antibacterial activity against Klebsiella pneumoniae assessed as bacterial growth inhibition by serial dilution method; assay type: functional
[49] = tested on: Staphylococcus aureus; assay: Antibacterial activity against Staphylococcus aureus AUMC B-73 assessed as bacterial growth inhibition by agar cup diffusion method; assay type: functional
[50] = tested on: Klebsiella pneumoniae; assay: Antibacterial activity against Klebsiella pneumoniae AUMC B-77 assessed as bacterial growth inhibition by agar cup diffusion method; assay type: functional
[51] = tested on: Enterococcus faecalis; assay: Antibacterial activity against Enterococcus faecalis assessed as bacterial growth inhibition by broth microdilution assay; assay type: functional
[52] = tested on: Escherichia coli; assay: Antibacterial activity against fluoroquinolone Escherichia coli assessed as bacterial growth inhibition by broth microdilution assay; assay type: functional
[53] = tested on: Staphylococcus aureus; assay: Antibacterial activity Staphylococcus aureus ATCC 25923 assessed as bacterial growth inhibition by broth microdilution assay; assay type: functional
[54] = tested on: Acinetobacter baumannii; assay: Antibacterial activity against Acinetobacter baumannii assessed as bacterial growth inhibition by broth microdilution assay; assay type: functional
[55] = tested on: Klebsiella pneumoniae; assay: Antibacterial activity against Klebsiella pneumoniae assessed as bacterial growth inhibition by broth microdilution assay; assay type: functional
[56] = tested on: Staphylococcus aureus; assay: Antibacterial activity against methicillin resistant Staphylococcus aureus assessed as bacterial growth inhibition by microdilution assay; assay type: functional

O=C(NCCCCCC(=O)N1CCN(c2cc3c(cc2F)c(=O)c(C(=O)O)cn3C2CC2)CC1)c1cc(O)c(O)c(C(=O)N[C@H]2COC(=O)[C@@H](NC(=O)c3cccc(O)c3O)COC(=O)[C@@H](NC(=O)c3cccc(O)c3O)COC2=O)c1
MIC [1]: 0.1 µg/mL (≈ 0.0877 µM)
MIC [2]: 0.1 µg/mL (≈ 0.0877 µM)

COc1cccc2ccc(C(=O)N3CCN(c4cc5c(cc4F)c(=O)c(C(=O)O)cn5C4CC4)CC3)nc12
MIC [3]: 0.2 µg/mL (≈ 0.387 µM)
Ratio [4]: 2

O=C(O)c1cn(C2CC2)c2cc(N3CCN(Cc4nc5ccccc5c(=O)[nH]4)CC3)c(F)cc2c1=O
MIC [5]: 0.031 µg/mL (≈ 0.0633 µM)
MIC [6]: 0.25 µg/mL (≈ 0.511 µM)

CCOP(=O)(OCC)C(Nc1ncc(-c2cc3ccccc3oc2=O)s1)c1cc2ccccc2[nH]c1=O (stereo not given)
MIC [7]: 0.25 µg/mL (≈ 0.465 µM)
MIC [8]: 0.25 µg/mL (≈ 0.465 µM)
MIC [9]: 0.25 µg/mL (≈ 0.465 µM)
MIC [10]: 0.25 µg/mL (≈ 0.465 µM)

O=C(O)c1cn(C2CC2)c2cc(N3CCNCC3)c(F)cc2c1=O [CIPROFLOXACIN]
MIC [11]: 1.9 µg/mL (≈ 5.73 µM)
MIC [12]: 8.62 µg/mL (≈ 26 µM)
MIC [13]: 1.9 µg/mL (≈ 5.73 µM)
MIC [14]: 0.5 µg/mL (≈ 1.51 µM)
MIC [15]: 5.49 µg/mL (≈ 16.6 µM)
MIC [16]: 0.195 µg/mL (≈ 0.589 µM)
MIC [17]: ≤ 0.03 µg/mL
MIC [18]: ≤ 0.03 µg/mL
MIC [19]: ≤ 0.03 µg/mL
zone of inhibition at 50000 µg/mL [20]: 33 mm
zone of inhibition at 50000 µg/mL [21]: 33 mm
zone of inhibition at 50000 µg/mL [22]: 30 mm
zone of inhibition at 50000 µg/mL [23]: 30 mm
MIC [24]: 11.2 µg/mL (≈ 34 µM)
zone of inhibition at 50000 µg/mL [25]: 11 mm
zone of inhibition at 50000 µg/mL [26]: 13 mm
MIC [27]: ≥ 2 µg/mL
MIC [28]: ≥ 2 µg/mL
MIC [29]: ≥ 2 µg/mL
IC50 [30]: 17.5 µM
MIC [30]: 1.06 µg/mL (≈ 3.2 µM)
IC50 [31]: 17.5 µM
MIC [31]: 1.06 µg/mL (≈ 3.2 µM)
IC50 [32]: 17.5 µM
MIC [32]: 1.06 µg/mL (≈ 3.2 µM)
zone of inhibition at 50000 µg/mL [33]: 26.3 mm
zone of inhibition at 250 µg/mL [34]: 17 mm
zone of inhibition at 250 µg/mL [35]: 17 mm
zone of inhibition at 250 µg/mL [36]: 17 mm
MIC [37]: 0.24 µg/mL (≈ 0.724 µM)
MIC [38]: 0.24 µg/mL (≈ 0.724 µM)
MIC [39]: 0.24 µg/mL (≈ 0.724 µM)
MIC [40]: 0.24 µg/mL (≈ 0.724 µM)
MIC [41]: 4.68 µg/mL (≈ 14.1 µM)
MIC [42]: 4.68 µg/mL (≈ 14.1 µM)
MIC [43]: 4.68 µg/mL (≈ 14.1 µM)
MIC [44]: 0.49 µg/mL (≈ 1.48 µM)
MIC [45]: 0.312 µg/mL (≈ 0.942 µM)
MIC [46]: 0.312 µg/mL (≈ 0.942 µM)
MIC [3]: 0.78 µg/mL (≈ 2.35 µM)
MIC [47]: 3.25 µg/mL (≈ 9.81 µM)
MIC [48]: 0.312 µg/mL (≈ 0.942 µM)
MIC [49]: 1.6 µg/mL (≈ 4.83 µM)
MIC [50]: 3.6 µg/mL (≈ 10.9 µM)
MIC [51]: 0.72 µg/mL (≈ 2.17 µM)
MIC [52]: 0.72 µg/mL (≈ 2.17 µM)
MIC [53]: 4 µg/mL (≈ 12.1 µM)
MIC [54]: 0.004 µg/mL (≈ 0.0121 µM)
MIC [55]: 0.004 µg/mL (≈ 0.0121 µM)
MIC [56]: 0.5 µg/mL
